Source: ChEMBL document CHEMBL4665695, “Antifungal Phenols from Woodfordia uniflora Collected in Oman” (2020)
Converted amounts (≈) assume the structure as drawn.

Tests used:
Assay type in all cases: functional
Cryptococcus neoformans [1] = assay: Antifungal activity against Cryptococcus neoformans JEC21 by CLSI protocol-based broth serial dilution method
Candida albicans = assay: Antifungal activity against Candida albicans SC5314 by CLSI protocol-based broth serial dilution method
Cryptococcus neoformans [2] = assay: Antifungal activity against Cryptococcus neoformans H99 by CLSI protocol-based broth serial dilution method

`COc1c(O)cc(C(=O)O)cc1O` gave an MIC (Cryptococcus neoformans [1]) of 272 µM (≈ 50 µg/mL), an MIC (Candida albicans) of over 272 µM and an MIC (Cryptococcus neoformans [2]) of 67.9 µM (≈ 12.5 µg/mL).

`O=C(O[C@H]1[C@H](c2c(O)cc(O)c3c2O[C@H](c2ccc(O)c(O)c2)[C@@H](O)C3)c2c(O)cc(O)cc2O[C@@H]1c1ccc(O)c(O)c1)c1cc(O)c(O)c(O)c1` was tested, and the MIC (Cryptococcus neoformans [1]) was 8.5 µM (≈ 6.21 µg/mL), the MIC (Candida albicans) was 17.1 µM (≈ 12.5 µg/mL) and the MIC (Cryptococcus neoformans [2]) was 4.2 µM (≈ 3.07 µg/mL).

`O=C(Oc1cc(O)c2c(c1)O[C@H](c1ccc(O)c(O)c1)[C@@H](O)C2)c1cc(O)c(O)c(O)c1` gave an MIC (Candida albicans) of 56.6 µM (≈ 25 µg/mL) and an MIC (Cryptococcus neoformans [2]) of 1.8 µM (≈ 0.796 µg/mL).

With `O=C(Oc1ccc([C@H]2Oc3cc(O)cc(O)c3C[C@@H]2O)cc1O)c1cc(O)c(O)c(O)c1` the MIC (Cryptococcus neoformans [1]) was 113 µM (≈ 50 µg/mL), the MIC (Candida albicans) was 56.6 µM (≈ 25 µg/mL) and the MIC (Cryptococcus neoformans [2]) was 113 µM (≈ 50 µg/mL).

For `COc1cc(O)c2c(=O)c(O)c(-c3ccc(O[C@@H]4O[C@H](CO)[C@@H](O)[C@H](O)[C@H]4O)c(O)c3)oc2c1`, the MIC (Cryptococcus neoformans [1]) was 105 µM (≈ 50 µg/mL), the MIC (Candida albicans) was over 105 µM and the MIC (Cryptococcus neoformans [2]) was 52.3 µM (≈ 25 µg/mL).

`COc1cc(O)c2c(=O)c(O[C@@H]3O[C@@H](C)[C@H](O)[C@@H](O)[C@H]3O)c(-c3ccc(O)c(O)c3)oc2c1` showed an MIC (Candida albicans) of over 433 µM and an MIC (Cryptococcus neoformans [2]) of 27 µM (≈ 12.5 µg/mL).

Compound `COc1cc(O)c2c(=O)c(O[C@@H]3O[C@@H](C)[C@H](O)[C@@H](O)[C@H]3O)c(-c3ccc(O)cc3)oc2c1` has an MIC (Cryptococcus neoformans [1]) of 56 µM (≈ 25 µg/mL), an MIC (Candida albicans) of over 112 µM and an MIC (Cryptococcus neoformans [2]) of 56 µM (≈ 25 µg/mL).

In the case of `C[C@]12OC(=O)C[C@H]1[C@H]1Oc3cc(O)cc(O)c3C[C@H]1O2`, the MIC (Cryptococcus neoformans [1]) is reported as 180 µM (≈ 50 µg/mL), the MIC (Candida albicans) is reported as over 180 µM and the MIC (Cryptococcus neoformans [2]) is reported as 180 µM (≈ 50 µg/mL).

`O=C(Oc1cc([C@H]2Oc3cc(O)cc(O)c3C[C@@H]2O)ccc1O)c1cc(O)c(O)c(O)c1` gave an MIC (Cryptococcus neoformans [1]) of 113 µM (≈ 50 µg/mL), an MIC (Candida albicans) of over 113 µM and an MIC (Cryptococcus neoformans [2]) of 113 µM (≈ 50 µg/mL).

For `O=C(Oc1cc(O)c2c(c1)O[C@H](c1ccc(O)c(O)c1)CC2)c1cc(O)c(O)c(O)c1`, the MIC (Cryptococcus neoformans [1]) was 3.8 µM (≈ 1.62 µg/mL), the MIC (Candida albicans) was 14.8 µM (≈ 6.31 µg/mL) and the MIC (Cryptococcus neoformans [2]) was 1.9 µM (≈ 0.81 µg/mL).

Work on `O=C(Oc1cc(O)c2c(c1)O[C@@H](c1ccc(O)c(O)c1)CC2)c1cc(O)c(O)c(O)c1` yielded an MIC (Cryptococcus neoformans [1]) of 3.8 µM (≈ 1.62 µg/mL), an MIC (Candida albicans) of 14.8 µM (≈ 6.31 µg/mL) and an MIC (Cryptococcus neoformans [2]) of 1.9 µM (≈ 0.81 µg/mL).

`COc1cc(O)c2c(=O)c(O[C@@H]3O[C@H](COC(=O)c4cc(O)c(O)c(O)c4)[C@@H](O)[C@H](O)[C@H]3O)c(-c3ccc(O)c(O)c3)oc2c1` was tested, and the MIC (Candida albicans) was over 317 µM and the MIC (Cryptococcus neoformans [2]) was 10 µM (≈ 6.31 µg/mL).

`CC(=O)[C@@H](CC(=O)O)[C@H]1Oc2cc(O)cc(O)c2C[C@@H]1O` was tested, and the MIC (Cryptococcus neoformans [1]) was 169 µM (≈ 50 µg/mL), the MIC (Candida albicans) was over 169 µM and the MIC (Cryptococcus neoformans [2]) was 169 µM (≈ 50 µg/mL).

`O=C(OC[C@H]1O[C@@H](Oc2c(-c3ccc(O)c(O)c3)oc3cc(O)cc(O)c3c2=O)[C@H](O)[C@@H](O)[C@@H]1O)c1cc(O)c(O)c(O)c1` showed an MIC (Candida albicans) of over 325 µM and an MIC (Cryptococcus neoformans [2]) of 2.6 µM (≈ 1.6 µg/mL).

For `Oc1cc(O)c2c(c1)O[C@H](c1ccc(O)c(O)c1)[C@@H](O)[C@@H]2c1c(O)cc(O)c2c1O[C@H](c1ccc(O)c(O)c1)[C@@H](O)C2`, the MIC (Cryptococcus neoformans [1]) was 5.4 µM (≈ 3.12 µg/mL), the MIC (Candida albicans) was over 86.5 µM and the MIC (Cryptococcus neoformans [2]) was 5.4 µM (≈ 3.12 µg/mL).

In the case of `O=C(OC[C@H]1O[C@@H](Oc2c(-c3ccc(O)cc3)oc3cc(O)cc(O)c3c2=O)[C@H](O)[C@@H](O)[C@@H]1O)c1cc(O)c(O)c(O)c1`, the MIC (Cryptococcus neoformans [1]) is reported as 83.3 µM (≈ 50 µg/mL), the MIC (Candida albicans) is reported as over 83.3 µM and the MIC (Cryptococcus neoformans [2]) is reported as 20.8 µM (≈ 12.5 µg/mL).

Compound `Oc1cc(O)c2c(c1)O[C@H](c1ccc(O)c(O)c1)[C@@H](O)C2` [CIANIDANOL] has an MIC (Candida albicans) of over 690 µM and an MIC (Cryptococcus neoformans [2]) of 10.7 µM (≈ 3.11 µg/mL).

Compound `CCOC(=O)c1cc(O)c(O)c(O)c1` [ETHYLGALLATE] has an MIC (Cryptococcus neoformans [1]) of 252 µM (≈ 50 µg/mL), an MIC (Candida albicans) of over 252 µM and an MIC (Cryptococcus neoformans [2]) of 126 µM (≈ 25 µg/mL).

`OC(Cn1cncn1)(Cn1cncn1)c1ccc(F)cc1F` [FLUCONAZOLE] gave an MIC (Cryptococcus neoformans [1]) of 6.5 µM (≈ 1.99 µg/mL), an MIC (Candida albicans) of 1.6 µM (≈ 0.49 µg/mL) and an MIC (Cryptococcus neoformans [2]) of 25.5 µM (≈ 7.81 µg/mL).

`O=C(O)c1cc(O)c(O)c(O)c1` [GALLIC ACID] gave an MIC (Cryptococcus neoformans [1]) of 147 µM (≈ 25 µg/mL), an MIC (Candida albicans) of over 294 µM and an MIC (Cryptococcus neoformans [2]) of 147 µM (≈ 25 µg/mL).

`O=c1c(O[C@@H]2O[C@H](CO)[C@@H](O)[C@H](O)[C@H]2O)c(-c2ccc(O)c(O)c2)oc2cc(O)cc(O)c12` [ISOQUERCETIN] gave an MIC (Cryptococcus neoformans [1]) of 108 µM (≈ 50 µg/mL), an MIC (Candida albicans) of over 108 µM and an MIC (Cryptococcus neoformans [2]) of 53.9 µM (≈ 25 µg/mL).
